This experiment is described as follows: EBV protein-peptide binding inhibitors, dose response, biochemical, fluorescence polarization (AID 1419). The settings on record: cell-free protein-peptide binding, 2 h; for fold change: measured here: P channel fold over control, at 54 µM. On the technique in general: Fluorescence polarisation rises when a labelled molecule tumbles more slowly, as on binding a larger partner.

Active and inactive are the calls of the source. The rule behind the calls is not given here.

As to `CCN1CC=C2C(C#N)=C(N)C(C#N)(C#N)[C@H](c3ccoc3)[C@H]2C1`, the IC50 was 7.47 µM and the fold change is 3.84.
On to `O=C1CCNc2c(Cl)cc(Cl)cc21`, for which the concentration for half-maximal inhibition (IC50) is 11.1 µM and the fold change came to 2.51.
On the same counts, the results for `COc1ccc(N=C2S/C(=C\c3ccc(OCC(=O)O)cc3)C(=O)N2CCc2c[nH]c3ccccc23)cc1` are 1.88 µM and 1.05.
The like results for `COc1ccc(CCNC(=O)COc2nsnc2N2CCOCC2)cc1OC` were, in that order, > 54 µM (inactive) and 1.22.
The like results for `CN1C(=O)C(=Cc2ccc(N3CCCCCC3)cc2)C(=O)N(C)C1=O` were, in that order, 6.16 µM and 11.1.
In the case of `Nc1ccc2nonc2c1[N+](=O)[O-]`, the IC50 was less than 0.42 µM and the fold change is 41.
On the same counts, the results for `N#C/C(=C\C1=C(N2CCOCC2)C(=C\c2ccc(Cl)cc2)/CC1)C(=O)Nc1ccccc1F` are 3.43 µM and 4.49.
As for `Cc1cc(S(=O)(=O)Nc2nc(CN3CCOCC3)nc3sc4c(c23)CCCC4)ccc1F`, the IC50 is > 54 µM (inactive) and the fold change stood at 1.04.
Take `CCCCCn1nc(-c2ccccc2)c2nc3ccccc3nc21`: the IC50 is 2.92 µM and the fold change was determined as 33.5.
The like results for `CCCCN1C(=O)C2Cc3c([nH]c4ccccc34)CN2C1=S` (stereo not drawn) were, in that order, 2.73 µM and 5.04.
As for `O=C(CSc1nc(-c2ccccc2)nc2c1Cc1ccccc1O2)Nc1ccc(C(=O)O)cc1`, the IC50 was 1.64 µM and the fold change turned out to be 1.12.
On the same counts, the results for `COc1ccc(NS(=O)(=O)c2ccc(Cl)s2)cn1` are 4.58 µM and 3.24.
Take `CN1CCc2cc3c(c4c2[C@H]1[C@H](O)c1ccccc1-4)OCO3`: the IC50 is 10.3 µM and the fold change stood at 2.19.
On the same counts, the results for `CC(C)[C@H]1C(=O)N2CCC[C@H]2[C@]2(O)O[C@](NC(=O)[C@@H]3C=C4c5cccc6[nH]cc(c56)C[C@H]4N(C)C3)(C(C)C)C(=O)N12` are 3.64 µM and 5.11.
With `O=C1c2cccc3c(O)ccc(c23)C(=O)N1Cc1ccccc1`, the IC50 was less than 0.42 µM and the fold change came out at 138.
The like results for `O=c1[nH]c(C(Cl)Cl)nc2sc3c(c12)CCN(Cc1ccccc1)C3` were, in that order, 11.8 µM and 2.
With `COC(=O)c1cc2c(-c3ccccc3)cc3ccccn3c-2c1C(=O)OC`, the IC50 was 27 µM and the fold change worked out at 1.65.
On the same counts, the results for `Cc1ccc(S(=O)(=O)c2c(N)n(Cc3ccco3)c3nc4ccccc4nc23)cc1` are > 54 µM (inactive) and 1.41.
The like results for `CCOC(=O)c1c(C)[nH]c(C)c1C(=O)CSc1nc2ccccc2n1CC` were, in that order, > 54 µM (inactive) and 1.24.
On the same counts, the results for `COC(=O)CCCCC1SCC(NC(=O)c2ccccc2)C1Cl` (stereo not drawn) are 10.8 µM and 2.16.
With `COc1cc(C=C2C(=O)c3ccccc3C2=O)cc(OC)c1OC`, the IC50 is > 54 µM (inactive) and the fold change amounted to 1.06.
Regarding `O=C(CSc1nnc(SCc2ccccc2)s1)N/N=C/C=C/c1ccco1`, the IC50 was > 54 µM (inactive) and the fold change is 1.04.
On the same counts, the results for `COc1ccccc1Nc1nc2ccc(C)cc2cc1C#N` are 16.6 µM and 2.74.
With `CCn1c(SCc2ccc(C(=O)Nc3nccs3)cc2)nnc1-c1ccc(N)cc1`, the IC50 was > 54 µM (inactive) and the fold change amounted to 0.973.
On the same counts, the results for `COc1ccc(-n2cccc2/C=C2\C(=N)N3N=C(c4ccco4)SC3=NC2=O)cc1` are 2.85 µM and 1.17.
In the case of `CC(=O)Nc1cccc(C2=CC(c3ccco3)n3ncnc3N2)c1` (stereo not drawn), the IC50 is 1.48 µM and the fold change is 20.3.
On the same counts, the results for `N#CC1CC(c2ccc([N+](=O)[O-])cc2)=NN1c1ccc([N+](=O)[O-])cc1` (stereo not drawn) are 3.86 µM and 6.23.
As for `Cc1cc(=O)oc2c3c4c(cc12)OCCN4CCC3`, the IC50 is 3.95 µM and the fold change worked out at 3.5.
On the same counts, the results for `Cc1ccc(S(=O)(=O)C(C#N)c2nc3ccccc3nc2N2CCCC2)cc1C` (stereo not drawn) are > 54 µM (inactive) and 1.26.
On to `O=C(Nc1nccs1)C(c1ccccc1)N1CCCC1` (stereo not drawn), for which the IC50 was > 54 µM (inactive) and the fold change came to 1.04.
Turning to `Cc1cc(=O)oc2c(CN3CCC(C)CC3)c(O)c(Cl)cc12`, the IC50 is 2.42 µM and the fold change is 2.16.
On the same counts, the results for `COC(=O)c1cc2c(C)cc3ccc(C)cn3c-2c1C(=O)OC` are 9.57 µM and 4.48.
On the same counts, the results for `CCCN(CCC)S(=O)(=O)c1ccc(C(=O)OCCN2C(=O)c3cccc4c(N5CCOCC5)ccc(c34)C2=O)cc1` are 1.5 µM and 96.6.
On the same counts, the results for `COc1ccc2c3c(cccc13)C(=O)N(O)C2=O` are 4.72 µM and 2.23.
Take `Cc1cccc2cc3c(N)c(C(=O)N4CCCc5ccccc54)sc3nc12`: the IC50 is 9.62 µM and the fold change turned out to be 4.66.
On the same counts, the results for `O=C(N/N=C/c1cccc(F)c1)c1cc(-c2ccco2)nc2ccccc12` are 3.61 µM and 1.06.
On the same counts, the results for `CCN(CC)c1ccc(/C=C(\C#N)C(=O)c2ccc(Br)cc2)cc1` are 2.69 µM and 107.
As to `COc1ccc(/C=C2\SC(c3ccc(C)cc3)=NC2=O)cc1OC`, the IC50 was > 54 µM (inactive) and the fold change was 8.37.
The like results for `COc1ccc(NC(=O)Cn2ncc(Cl)c(Cl)c2=O)cc1S(=O)(=O)N1CCOCC1` were, in that order, > 54 µM (inactive) and 0.96.
On the same counts, the results for `CC(=O)N1CCCc2cc(S(=O)(=O)N(CC(C)C)CC(C)C)ccc21` are > 54 µM (inactive) and 0.967.
On the same counts, the results for `CCOc1ccc(N=C2NC(=O)S/C2=C\c2ccc(N(C)C)cc2)cc1` are 5.8 µM and 8.81.
Consider `Cc1cc(/C=C2\C(=O)NC(=O)N(c3cccc(Br)c3)C2=O)c(C)n1C`, for which the IC50 was 7.34 µM and the fold change worked out at 9.43.
The like results for `COc1ccc(Cc2nnc(NC(=O)Cc3cccs3)s2)cc1OC` were, in that order, > 54 µM (inactive) and 1.15.
On the same counts, the results for `OCCNc1nc(Nc2ccc(Br)cc2)nc2ccccc12` are > 54 µM (inactive) and 0.987.
On the same counts, the results for `Cc1ccc(N2C(=O)C3C(C(=O)c4ccccc4)=NN(c4ccccc4)C3C2=O)cc1` (stereo not drawn) are 7.31 µM and 8.5.
Turning to `O=c1nc2c(O)cccn2c2c1c(=O)[nH]c1ccccc12`, the IC50 was less than 0.42 µM and the fold change was 7.35.
Regarding `O=C(CSc1ccccn1)Nc1ccc2c(c1)C(=O)c1ccccc1C2=O`, the IC50 is 19.4 µM and the fold change came out at 0.783.
In the case of `O=c1[nH]c(=S)n(-c2ccc(Br)cc2)c(O)c1C=Nc1ccc(N2CCOCC2)cc1`, the IC50 was 3.54 µM and the fold change is 5.78.
Take `CCCN1C(=O)/C(=C\C=C2\N(CC)c3ccccc3C2(C)C)SC1=S`: the IC50 was 3.39 µM and the fold change stood at 20.

In general, IC50 refers to the point on the concentration scale where inhibition reaches its midpoint.

The record behind these values is PubChem BioAssay AID1419 (Emory University Molecular Libraries Screening Center, 2008).
